Source: US20110281852A1 (priority 2010, published 2011)

Tests used:
[1] = system: human white preadipocytes (HWP); assay: MTT assay, viability of HWP during differentiation; type: cell-based; conditions: 15 days of differentiation
Description: Cell culture: Cell culture was carried out following the protocol provided by Promocell Company. Briefly, human white preadipocytes (HWP's […]) were cultured at 37° C. in a humidified 5% CO2 atmosphere and grown in a preadipocyte Growth medium (GM) with 100 units/ml penicillin and 100 μg/ml streptomycin until confluence (day 0). Differentiation was induced with preadipocyte Differentiation Medium (DM) for 3 days (days 3), where upon the medium was changed to adipocyte Nutrition Medium (NM) and cultured for 12 days (days 15) (HWP cell line and media were purchased from Promocell, Heidelberg, Germany).

PPARγ [2] = assay: Real-Time RT-PCR, PPARγ mRNA in HWP; type: cell-based, human; conditions: day 15
From the text: (§1) Quantitative Real-Time RT-PCR: Real-Time reverse transcriptase polymerase chain reaction (RT-PCR) analysis was used to measure mRNA expression of human genes PPARγ, C/EBPα, GATA-2 and GATA-3 under the control of β-actin. Briefly, total RNA was isolated from HWP following treatment at days 15 with Trizol reagent (Invitrogen, Carlsbad, Calif., USA) according to the manufacturer's instruction. RNA was quantified using absorption of light at 260 and 280 nm, and sample integrity was checked by 1.5% agarose gel electrophoresis. 0.8 μg of total RNA from each sample was used for reverse transcription reaction using the TaqMan Reverse Transcription Reagents (Applied Biosystems, Foster City, Calif., USA) following the Manufacturer's instructions. PCR was done using the SYBR green Master Mix (Applied Biosystems, Foster City, Calif., USA) following the manufacturer's instructions. The temperature cycling conditions of amplification were as follows: an initial step of denaturation at 95° C. for 10 min, 40 cycles of denaturation at 95° C. for 30 s, annealing at 55° C. for 30 s, and elongation at 72° C. for 30 s. Real-Time RT-PCR was performed using Mx3000P Real-Time Thermocyclers (Statagene, La Jolla, Calif., USA). The relative mRNA levels of these genes were calculated by Pfaffl's mathematical method (Pfaffl, M W, Nucleic Acid Res (2001) 29:e45) and normalized with control-treated groups.

GATA-2 = assay: Real-Time RT-PCR, GATA-2 mRNA in HWP; type: cell-based, human; conditions: day 15
From the text: as §1

[3] = system: human white preadipocytes (HWP); assay: Oil-Red-O staining and quantification, HWP differentiation; type: cell-based; conditions: 15 days post differentiation induction
Description: Cell culture: Cell culture was carried out following the protocol provided by Promocell Company. […] Differentiation was induced with preadipocyte Differentiation Medium (DM) for 3 days (days 3), where upon the medium was changed to adipocyte Nutrition Medium (NM) and cultured for 12 days (days 15) (HWP cell line and media were purchased from Promocell, Heidelberg, Germany).
Oil-Red-O Staining and quantification: Oil-Red-O Staining and quantitative Oil-Red-O Staining were performed as previously reported. Briefly, medium was removed and cells were washed with PBS twice, fixed with 3.7% formalin at room temperature for 30 min, then rinsed with water, added 60% 2-propanol and incubated for 5 minutes, then moved out 2-propanol and stained cells with Oil-Red-O solution (Oil-Red-O store solution (3 mg/ml in pure 2-propanol): water=3:2) at room temperature for 10 min. Then the Oil-Red-O solution was removed and cells were washed 3 times with water. Images were obtained using an Olympus IX70 inverted microscope equipped for phase-contrast microscopy (Olympus, Tokyo, Japan). After staining, the cells were washed twice with 70% ethanol to remove excess stain. Stained oil droplets in the cells were dissolved in 2-propanol containing 4% Nonidet-P40 (Fisher Scientific, Pittsburgh, Pa., USA) and OD values were measured at an absorbance of 490 nm.

GATA-3 [4] = assay: Real-Time RT-PCR, GATA-3 mRNA in HWP; type: cell-based, human; conditions: day 15
From the text: as §1

C/EBPα [5] = assay: Real-Time RT-PCR, C/EBPα mRNA in HWP; type: cell-based, human; conditions: day 15
From the text: as §1

PPARγ [6] = assay: Immunoblot, PPARγ protein in HWP; type: cell-based, human; conditions: day 15
Description: (§2) Immunoblot Analysis: Protein expression of GATA-2, GATA-3, PPARγ and C/EBPα were assessed by Western Blot. Total proteins were isolated from HWP treated with compounds or vehicles on day 15. The cells were washed twice with PBS, lysed in a lysis buffer containing HEPES-Tx-PI buffer: […] HEPES, 5 mM EDTA, 350 mM Sucrose, 1 μg/ml leupeptin, 1 μg/ml pepstatin, 1% Triton-X, 1 mM PMSF), processed with a 25G needle and centrifuged at 10,000 rpm for 5 min. Protein concentration was determined using the Micro BCA Protein Assay Kit (Fisher Scientific, Pittsburgh, Pa., USA) according to the manufacturers instructions. 20 μg proteins were loaded and separated by electrophoresis using the BioRad Electrophoretic System (60 V for 1 hour followed by 90 V for 5 hours). The proteins were then transferred to nitrocellulose membranes at 35 V overnight. The membrane was blocked for 1 hour at room temperature in 5% nonfat milk in Tris-buffered saline (TBS), then washed with Tween-20-TBS (TTBS, 0.1% Tween-20) three times (15 min, 5 min, 5 min), followed by incubation with primary antibodies human GATA-2, GATA-3, PPARγ, C/EBPα and β-actin (dilution 1:200) (all antibodies were purchased from Santa Cruz Biotechnology, Santa Cruz, Calif., USA) at room temperature for 2 hours. […]

C/EBPα [7] = assay: Immunoblot, C/EBPα protein in HWP; type: cell-based, human; conditions: day 15
Description: as §2

GATA-3 [8] = assay: Immunoblot, GATA-3 protein in HWP; type: cell-based, human; conditions: day 15
Description: Immunoblot Analysis: Protein expression of GATA-2, GATA-3, PPARγ and C/EBPα were assessed by Western Blot. Total proteins were isolated from HWP treated with compounds or vehicles on day 15. The cells were washed twice with PBS, lysed in a lysis buffer containing HEPES-Tx-PI buffer: […] HEPES, 5 mM EDTA, 350 mM Sucrose, 1 μg/ml leupeptin, 1 μg/ml pepstatin, 1% Triton-X, 1 mM PMSF), processed with a 25G needle and centrifuged at 10,000 rpm for 5 min. Protein concentration was determined using the Micro BCA Protein Assay Kit (Fisher Scientific, Pittsburgh, Pa., USA) according to the manufacturers instructions. 20 μg proteins were loaded and separated by electrophoresis using the BioRad Electrophoretic System (60 V for 1 hour followed by 90 V for 5 hours). The proteins were then transferred to nitrocellulose membranes at 35 V overnight. The membrane was blocked for 1 hour at room temperature in 5% nonfat milk in Tris-buffered saline (TBS), then washed with Tween-20-TBS (TTBS, 0.1% Tween-20) three times (15 min, 5 min, 5 min), followed by incubation with primary antibodies human GATA-2, GATA-3, PPARγ, C/EBPα and β-actin (dilution 1:200) (all antibodies were purchased from Santa Cruz Biotechnology, Santa Cruz, Calif., USA) at room temperature for 2 hours. The membrane was rinsed three times (15 min, 5 min, 5 min), then incubated at room temperature for 1 hour with Horseradish peroxidase-conjugated second antibody (1:10,000). The membrane was then incubated in ECL reagent (GE Healthcare, Piscataway, N.J., USA) for 1 minute. Protein was visualized using the UVP image analysis system (UVP, Upland, Calif., USA).

`COc1ccc2cc3[n+](cc2c1OC)CCc1cc2c(cc1-3)OCO2.[Cl-]` [berberine, Berberine (Chloride Form)] was tested. Which “decrease of cell viability vs control” value ([1]; 1 μM) did it give?
Its value is −3.1%.

And the “decrease of cell viability vs control” value ([1]; 2 μM)?
Its value is 1.1%.

And the “decrease of cell viability vs control” value ([1]; 4 μM)?
Its value is −0.0%.

And the “decrease of cell viability vs control” value ([1]; 8 μM)?
Its value is 1.3%.

What about the “change in PPARγ mRNA expression” value (PPARγ [2]) of the same molecule?
Its value is “no significant changes”.

And the “GATA-2 mRNA expression vs vehicle (control) group” value (shortened to “GATA-2 mRNA expression vs vehicle”) (GATA-2; 1 μM)?
Its value is 3.87 fold.

What about the “GATA-2 mRNA expression vs vehicle” value (GATA-2; 2 μM) of the same molecule?
The value was 4.1 fold.

And the “GATA-2 mRNA expression vs vehicle” value (GATA-2; 4 μM)?
The value was 3.8 fold.

What about the “GATA-2 mRNA expression vs vehicle” value (GATA-2; 8 μM) of the same molecule?
Its value is 5.33 fold.

What about the “reduction in lipid content” value ([3]; 1 μM) of the same molecule?
Its value is 31.9%.

What about the “reduction in lipid content” value ([3]; 2 μM) of the same molecule?
Its value is 42.9%.

What about the “reduction in lipid content” value ([3]; 4 μM) of the same molecule?
Its value is 60.6%.

What about the “reduction in lipid content” value ([3]; 8 μM) of the same molecule?
The value was 66.4%.

What about the “GATA-3 mRNA expression vs control group” value (GATA-3 [4]; 1 μM) of the same molecule?
Its value is 2.77 fold.

What about the “GATA-3 mRNA expression vs control group” value (GATA-3 [4]; 2 μM) of the same molecule?
The value was 2.79 fold.

And the “GATA-3 mRNA expression vs control group” value (GATA-3 [4]; 4 μM)?
The value was 4.43 fold.

What about the “GATA-3 mRNA expression vs control group” value (GATA-3 [4]; 8 μM) of the same molecule?
The value was 6.77 fold.

What about the “change in C/EBPα mRNA expression” value (C/EBPα [5]) of the same molecule?
Its value is “no significant changes”.

What about the “PPARγ protein expression, drug-treated vs control cells” value (PPARγ [6]) of the same molecule?
The value was “no significant difference”.

And the “C/EBPα protein expression, drug-treated vs control cells” value (C/EBPα [7])?
The value was “no significant difference”.

And the “GATA-3 protein expression vs controls” value (GATA-3 [8]; 1 μM)?
Its value is 5.63 fold.

And the “GATA-3 protein expression vs controls” value (GATA-3 [8]; 2 μM)?
Its value is 5.65 fold.

And the “GATA-3 protein expression vs controls” value (GATA-3 [8]; 4 μM)?
The value was 6.43 fold.

What about the “GATA-3 protein expression vs controls” value (GATA-3 [8]; 8 μM) of the same molecule?
Its value is 5.37 fold.

evodiamine was tested. Which “decrease of cell viability vs control” value ([1]; 0.25 μM) did it give?
The value was 14.1%.

And the “decrease of cell viability vs control” value ([1]; 0.5 μM)?
Its value is 15%.

And the “decrease of cell viability vs control” value ([1]; 1 μM)?
Its value is 17.7%.

And the “decrease of cell viability vs control” value ([1]; 2 μM)?
Its value is 30.5%.

What about the “decrease of cell viability vs control” value ([1]; 4 μM) of the same molecule?
Its value is 34.2%.

And the “decrease of cell viability vs control” value ([1]; 8 μM)?
The value was 53.6%.

And the “change in PPARγ mRNA expression” value (PPARγ [2])?
The value was “no significant changes”.

What about the “GATA-2 mRNA expression vs vehicle” value (GATA-2; 1 μM) of the same molecule?
Its value is 1.36 fold.

What about the “GATA-2 mRNA expression vs vehicle” value (GATA-2; 2 μM) of the same molecule?
Its value is 1.5 fold.

And the “GATA-2 mRNA expression vs vehicle” value (GATA-2; 4 μM)?
Its value is 2.08 fold.

And the “reduction in lipid content” value ([3]; 0.125 μM)?
Its value is 7.5%.

What about the “reduction in lipid content” value ([3]; 0.25 μM) of the same molecule?
The value was 13.8%.

And the “reduction in lipid content” value ([3]; 0.5 μM)?
The value was 19%.

What about the “reduction in lipid content” value ([3]; 1 μM) of the same molecule?
Its value is 27.8%.

What about the “reduction in lipid content” value ([3]; 2 μM) of the same molecule?
The value was 46.7%.

And the “reduction in lipid content” value ([3]; 4 μM)?
The value was 84.6%.

What about the “reduction in lipid content” value ([3]; 8 μM) of the same molecule?
Its value is 112.6%.

And the “GATA-3 mRNA expression vs control group” value (GATA-3 [4]; 1 μM)?
Its value is 2.61 fold.

And the “GATA-3 mRNA expression vs control group” value (GATA-3 [4]; 2 μM)?
Its value is 2.7 fold.

And the “GATA-3 mRNA expression vs control group” value (GATA-3 [4]; 4 μM)?
Its value is 2.79 fold.

And the “change in C/EBPα mRNA expression” value (C/EBPα [5])?
The value was “no significant changes”.

And the “PPARγ protein expression, drug-treated vs control cells” value (PPARγ [6])?
Its value is “no significant difference”.

And the “C/EBPα protein expression, drug-treated vs control cells” value (C/EBPα [7])?
The value was “no significant difference”.

What about the “GATA-3 protein expression vs controls” value (GATA-3 [8]; 1 μM) of the same molecule?
Its value is 4.21 fold.

And the “GATA-3 protein expression vs controls” value (GATA-3 [8]; 2 μM)?
The value was 4.95 fold.

And the “GATA-3 protein expression vs controls” value (GATA-3 [8]; 4 μM)?
The value was 6.57 fold.
